Laboratory results published in patent publication US9000003B2, “Anti-folate antimalarials with dual-binding modes and their preparation” (priority 2011, dated 2015).
Counter-ions that a name gives are not always drawn. Like-named read-outs stand apart in the source and are kept apart here.

Columns and labels:
Assay type in all cases: cell-based, Plasmodium falciparum
[1] = test system: P. falciparum Tm4/8.2 (wild type); experiment: In vitro anti-Plasmodial activity against Tm4/8.2; details: P. falciparum Tm4/8.2, wild type DHFR
Protocol: (§1) It is an object of the invention to provide anti-folate antimalarials with dual-binding modes, and pharmaceutically acceptable salts thereof, for substantially inhibiting dihydrofolate reductase enzymes. Enzymes, comprising dihydrofolate reductase of Plasmodium falciparum, wild-type, double (C59R+S108N), triple (N51+C59R+S108N, C59R+S108N+1164L), and quadruple (N51+C59R+S108N+I164L) mutants were prepared. The inhibition constants (Ki) of the enzymes with the invented compounds were investigated using a standard method. In vitro antimalarial activity (IC50) with malaria parasites carrying Tm4/8.2 (wild type), K1CB1 (double mutant, C59R+S108N), W2 (triple mutant N51I+C59R+S 108N), Cs1-2 (triple mutant, C59R+S108N+I164L), and V1/S (quadruple mutant, N51I+C59R+S108N+I164L) were also investigated using a standard method.

[2] = test system: P. falciparum K1CB1 (double mutant, C59R+S108N); experiment: In vitro anti-Plasmodial activity against K1CB1
Protocol: as §1

[3] = test system: P. falciparum W2 (triple mutant N51I+C59R+S108N); experiment: In vitro anti-Plasmodial activity against W2
Protocol: as §1

[4] = test system: P. falciparum Cs1-2 (triple mutant, C59R+S108N+I164L); experiment: In vitro anti-Plasmodial activity against Cs1-2
Protocol: as §1

[5] = test system: P. falciparum V1/S (quadruple mutant, N51I+C59R+S108N+I164L); experiment: In vitro anti-Plasmodial activity against V1/S
Protocol: as §1

[6] = Plasmodium falciparum, read-out: IC50 K1CB1, P. falciparum K1CB1, double mutant
[7] = Plasmodium falciparum, W2, read-out: IC50 W2, P. falciparum W2, triple mutant
[8] = Plasmodium falciparum, read-out: IC50 Cs1-2, P. falciparum Cs1-2, triple mutant
[9] = Plasmodium falciparum, read-out: IC50 V1/S, P. falciparum V1/S, quadruple mutant

| SMILES | IC50 ([1]; Plasmodium falciparum) | IC50 [2, 6] | IC50 [3, 7] | IC50 [4, 8] | IC50 [5, 9] | IC50 ([3]; read-out: IC50 W2, P. falciparum W2, triple mutant) | IC50 ([4]; read-out: IC50 Cs1-2, P. falciparum Cs1-2, triple mutant) | IC50 ([5]; read-out: IC50 V1/S, P. falciparum V1/S, quadruple mutant) | IC50 ([1]; dihydrochloride) | IC50 ([2]; read-out: IC50 K1CB1, P. falciparum K1CB1, double mutant, dihydrochloride) | IC50 ([3]; read-out: IC50 W2, P. falciparum W2, triple mutant, dihydrochloride) | IC50 ([4]; read-out: IC50 Cs1-2, P. falciparum Cs1-2, triple mutant, dihydrochloride) | IC50 ([5]; read-out: IC50 V1/S, P. falciparum V1/S, quadruple mutant, dihydrochloride) |
| --- | --- | --- | --- | --- | --- | --- | --- | --- | --- | --- | --- | --- | --- |
| CCc1nc(N)nc(N)c1-c1ccc(Cl)cc1 [Pyr, Pyrimethamine, reference compound] | 66 ± 30 nM | 27000 ± 3330 nM | 39000 ± 5420 nM | 37000 ± 5980 nM | > 100000 nM | – | – | – | – | – | – | – | – |
| CCc1nc(N)nc(N)c1-c1ccc(OCCCOc2ccc(-c3c(N)nc(N)nc3CC)cc2)cc1 [Compound E, 5-(4′-3″-(4″′-(2,4-diamino-6-ethylpyrimidin-5-yl)phenoxy)propoxy)phenyl)-6-ethylpyrimidine-2,4-diamine dihydrochloride] | 35 nM | 330 ± 40 nM | 280 ± 20 nM | 310 ± 20 nM | 330 ± 20 nM | – | – | – | – | – | – | – | – |
| CCc1nc(N)nc(N)c1OCCCOc1ccc(-c2c(N)nc(N)nc2CC)cc1 [Compound B, 5-(4′-(3″-(2,4-diamino-6-ethylpyrimidin-5-yloxy)propoxy)phenyl)-6-ethylpyrimidine-2,4-diamine] | 69 ± 10 nM | > 1000 nM | – | – | – | > 1000 nM | > 1000 nM | > 1000 nM | – | – | – | – | – |
| CCc1nc(N)nc(N)c1OCCCOc1ccc(-c2c(N)nc(N)nc2CC)cc1 [Compound D, 5-(4′-(3″-(2,4-diamino-6-ethylpyrimidin-5-yloxy)propoxy)phenyl)-6-ethylpyrimidine-2,4-diamine dihydrochloride] | – | – | – | – | – | – | – | – | 63 ± 10 nM | 1840 ± 310 nM | 2380 ± 110 nM | 3950 ± 360 nM | 4400 ± 710 nM |
| CCc1nc(N)nc(N)c1OCCCOc1cccc(-c2c(N)nc(N)nc2CC)c1 [Compound A, 5-(3′-(3″-(2,4-diamino-6-ethylpyrimidin-5-yloxy)propoxy)phenyl)-6-ethylpyrimidine-2,4-diamine] | 290 ± 50 nM | 220 ± 60 nM | 250 ± 80 nM | 510 ± 80 nM | 1720 ± 690 nM | – | – | – | – | – | – | – | – |
